Results published in ChEMBL document CHEMBL1150475, “Synthesis and biological activity of new optically active 2-oxaisocephems: 3-(N-alkylpyridinium-4-thio)methyl derivatives” (1994).
Values after ≈ are worked out from the molar mass of the structure shown.

What was measured:
Staphylococcus aureus [1] = test: Antibacterial activity against MRSA 5038.
Staphylococcus aureus [2] = test: Antibacterial activity against gram- positive Staphylococcus aureus FDA 209P; format: functional
Pseudomonas aeruginosa [3] = test: Antibacterial activity against gram- negative Pseudomonas […] ATCC 10145; format: functional
Mus musculus [4] = organism: Mus musculus; test: Antibacterial activity against mice infected with MRSA 5038 challenged with a dose of 1*10e7 cells/mouse; format: functional
Staphylococcus aureus [5] = test: Antibacterial activity against Staphylococcus aureus Smith.
Staphylococcus aureus [6] = test: Antibacterial activity against MRSA 5129
Staphylococcus aureus [7] = test: Antibacterial activity against gram- positive Staphylococcus aureus MRSA 57; format: functional
Escherichia coli [8] = test: Antibacterial activity against Escherichia coli No.29
Mus musculus [9] = organism: Mus musculus; test: Antibacterial activity against mice infected with MRSA 5129 challenged with a dose of 1.31*10e8 cells/mouse; format: functional
Mus musculus [10] = organism: Mus musculus; test: Antibacterial activity against mice infected with Staphylococcus aureus Smith challenged with a dose of 1.32*10e7 cells/mouse; format: functional
Mus musculus [11] = organism: Mus musculus; test: Antibacterial activity against mice infected with Escherichia coli No.29 challenged with a dose of 1.35*10e6 cells/mouse; format: functional
Escherichia coli [12] = test: Antibacterial activity against gram- negative Escherichia coli NIHJ JC-2; format: functional
Pseudomonas aeruginosa [13] = test: Antibacterial activity against gram- negative Pseudomonas aeruginosa ATCC 10145; format: functional
Mus musculus [14] = organism: Mus musculus; test: Antibacterial activity against mice infected with MRSA 5120 challenged with a dose of 7.6*10e7 cells/mouse; format: functional
Staphylococcus aureus [15] = test: Antibacterial activity against Staphylococcus aureus Smith.; remark: listed apart in the source
Mus musculus [16] = organism: Mus musculus; test: Antibacterial activity against mice infected with Escherichia coli No.29; format: functional
Mus musculus [17] = organism: Mus musculus; test: Antibacterial activity against mice infected with Staphylococcus aureus Smith.; format: functional
Escherichia coli [18] = test: Antibacterial activity against Escherichia coli No.29; remark: listed apart in the source
Staphylococcus aureus [19] = test: Antibacterial activity against gram- positive Staphylococcus aureus Methicillin resistant Staphylococcus aureus 57; format: functional
Pseudomonas aeruginosa [20] = test: Antibacterial activity against Pseudomonas aeruginosa ATCC 10145; format: functional
Mus musculus [21] = organism: Mus musculus; test: Antibacterial activity against mice infected with MRSA 5038; format: functional
Staphylococcus aureus [22] = test: microbe, parasite or virus in culture
Description: Antibacterial activity against Methicillin resistant Staphylococcus aureus 5038

Escherichia coli [23] = test: Antibacterial activity against Escherichia coli NIHJ JC-2; format: functional
Staphylococcus aureus [24] = test: microbe, parasite or virus in culture; remark: listed apart in the source
Description: Antibacterial activity against Methicillin resistant Staphylococcus aureus 5120

Staphylococcus aureus [25] = test: Antibacterial activity against Staphylococcus aureus Smith
Staphylococcus aureus [26] = test: microbe, parasite or virus in culture; remark: listed apart in the source
Description: Antibacterial activity against Methicillin resistant Staphylococcus aureus 5129

| SMILES | MIC (Staphylococcus aureus [2]) | MIC (Staphylococcus aureus [7]) | MIC (Escherichia coli [12]) | MIC (Pseudomonas aeruginosa [13]) | MIC (Staphylococcus aureus [15]) | ED50 (Mus musculus [16]) | MIC (Escherichia coli [18]) | other results |
| --- | --- | --- | --- | --- | --- | --- | --- | --- |
| C[n+]1ccc(SCC2=C(C(=O)O)N3C(=O)[C@@H](NC(=O)/C(=N/OC4CCCC4)c4csc(N)n4)[C@H]3CO2)cc1.O=S(=O)([O-])O | 0.05 µg/mL | 3.13 µg/mL | 0.39 µg/mL | – | – | – | – | MIC (Staphylococcus aureus [1]): 3.13 µg/mL; MIC (Pseudomonas aeruginosa [3]): 3.13 µg/mL; ED50 (Mus musculus [4]): 3.4 mg/kg; MIC (Staphylococcus aureus [5]): 0.39 µg/mL; MIC (Staphylococcus aureus [6]): 6.25 µg/mL; MIC (Escherichia coli [8]): 0.39 µg/mL; ED50 (Mus musculus [9]): 3.91 mg/kg; ED50 (Mus musculus [10]): 0.08 mg/kg; ED50 (Mus musculus [11]): 0.09 mg/kg |
| CO/N=C(/C(=O)N[C@@H]1C(=O)N2C(C(=O)O)=C(CSc3cc[n+](C)cc3)OC[C@H]12)c1csc(N)n1.O=S(=O)([O-])O | 0.2 µg/mL | 50 µg/mL | < 0.025 µg/mL | 6.25 µg/mL | – | – | – | – |
| CCC(=O)C[n+]1ccc(SCC2=C(C(=O)O)N3C(=O)[C@@H](NC(=O)/C(=N/OC4CCCC4)c4csc(N)n4)[C@H]3CO2)cc1.O=S(=O)([O-])O | 0.2 µg/mL | 6.25 µg/mL | 0.39 µg/mL | 6.25 µg/mL | 0.2 µg/mL | 0.15 mg/kg | 0.39 µg/mL | ED50 (Mus musculus [14]): 1 mg/kg; ED50 (Mus musculus [17]): 0.22 mg/kg |
| CO/N=C(/C(=O)N[C@@H]1C(=O)N2C(C(=O)O)=C(CSc3cc[n+](CC(C)=O)cc3)OC[C@H]12)c1csc(N)n1.O=S(=O)([O-])O | 0.39 µg/mL | 100 µg/mL | < 0.025 µg/mL | 12.5 µg/mL | – | – | – | – |
| CO[C@@]1(NC(=O)CSC(F)F)C(=O)N2C(C(=O)O)=C(CSc3nnnn3CCO)CO[C@@H]21 [FLOMOXEF] | 0.2 µg/mL (≈ 0.403 µM) | – | 0.1 µg/mL (≈ 0.201 µM) | > 100 µg/mL | 0.39 µg/mL (≈ 0.786 µM) | 0.43 mg/kg | 0.1 µg/mL (≈ 0.201 µM) | MIC (Staphylococcus aureus [19]): 25 µg/mL (≈ 50.4 µM) |
| CN[C@H](CC(C)C)C(=O)N[C@H]1C(=O)N[C@@H](CC(N)=O)C(=O)N[C@H]2C(=O)N[C@H]3C(=O)N[C@H](C(=O)N[C@H](C(=O)O)c4cc(O)cc(O)c4-c4cc3ccc4O)[C@H](O)c3ccc(c(Cl)c3)Oc3cc2cc(c3O[C@@H]2O[C@H](CO)[C@@H](O)[C@H](O)[C@H]2O[C@H]2C[C@](C)(N)[C@H](O)[C@H](C)O2)Oc2ccc(cc2Cl)[C@H]1O [VANCOMYCIN] | – | – | – | – | – | – | – | MIC (Pseudomonas aeruginosa [20]): > 100 µg/mL; ED50 (Mus musculus [21]): 2.7 mg/kg; MIC (Staphylococcus aureus [22]): 1.56 µg/mL (≈ 1.08 µM); MIC (Escherichia coli [23]): > 100 µg/mL; MIC (Staphylococcus aureus [24]): 0.78 µg/mL (≈ 0.538 µM); MIC (Staphylococcus aureus [25]): 0.78 µg/mL (≈ 0.538 µM); MIC (Staphylococcus aureus [26]): 0.78 µg/mL (≈ 0.538 µM) |
